# Assay results taken from patent US9918452B2, “Method and apparatus for controlling herbivore fowl populations” (2345422 Ontario Inc., priority 2013, dated 2018).
# Test system: Canada Geese
# Experiment: Repellent-adulterated feed plus non-adulterated attractant feed in a recreational area
# Format: in vivo
# From the text: Owing to the problems encountered with both wide-scale repellent spraying and the use of repellent-treated feed on its own, a new approach to controlling the goose population at the site of Example 1 was developed. In this new approach, both repellent-adulterated feed in the form of cracked corn treated with methyl anthranilate, and non-adulterated feed (also in the form of cracked corn) was used.
# In this approach to controlling the goose population at the site of Example 1, a commercially available animal feeder with a 200 lb. capacity tripod mounted hopper and SOLAR ELITE® dispensing head were obtained from On Time Wildlife Feeders (2488 Hwy 33, Ruston, La. 71270, U.S.A.). The feeder was modified as described in Example 5 to become a repellent station. The repellent reservoir was filled with an 8% solution of methyl anthranilate solution (prepared using fifty-five percent of a commercially available REJEX-IT® solution and forty-five percent water) and the flow rate from the repellent reservoir was adjusted to be approximately 0.0025 liters per second. The hopper of the repellent station was then filled with cracked corn.
# In FIG. 1a a portion of the site described in Example 1 is depicted. […]
smiles,measurement,setting,value
COC(=O)c1ccccc1N [methyl anthranilate],acceptance of repellent-adulterated cracked corn by geese,"8% methyl anthranilate solution sprayed on cracked corn at the repellent station, approx. 0.0025 liters per second",intolerable
same,return of geese to the grassy area where they are not desired,"repellent station with 8% methyl anthranilate solution plus unadulterated cracked corn on paved area, length of trial (six weeks)",did not return to grassy area 100
